ChEMBL document CHEMBL3244393, “6-aminopyrazolo[4,3-c]pyridin-4(5H)-one, a novel analogue of guanine” (J Med Chem, 1977)
Activity calls are given as the source filed them.

Key:
Human respirovirus 3 = test: Antiviral activity against Parainfluenza virus type 3 infected in human KB cells assessed as inhibition of virus-induced cytopathic effect; assay type: functional, organism-based
KB = test: Antiviral activity against Rhinovirus type 13 infected in human KB cells assessed as inhibition of virus-induced cytopathic effect; assay type: functional, cell-based; conditions: Human rhinovirus A13
Human alphaherpesvirus 1 = test: Antiviral activity against Herpes virus type 1 infected in human KB cells assessed as inhibition of virus-induced cytopathic effect; assay type: functional, organism-based

Measured: Activity

Nc1cc2[nH]ncc2c(=O)[nH]1
inactive: all assays above
